Each structure is given as a SMILES string.

Holding throughout (type): functional
For assay [1], the system named is Mus musculus. The assay is described as follows: Analgesic activity in ICR mouse assessed as pain threshold variation at 25 umol/kg, po administered as single dose measured after 30 mins by tail flick test relative to control.
Assay [2] has as its system Mus musculus. The assay is described as follows: Analgesic activity in ICR mouse assessed as pain threshold variation at 25 umol/kg, po administered as single dose measured after 60 mins by tail flick test relative to control. On the technique in general: Hot-plate and tail-flick tests time the reaction to a heat stimulus.
For assay [3], the system named is Mus musculus. The assay is described as follows: Analgesic activity in ICR mouse assessed as pain threshold variation at 25 umol/kg, po administered as single dose measured after 90 mins by tail flick test relative to control.
Assay [4] deals with Mus musculus. The assay is described as follows: Analgesic activity in ICR mouse assessed as pain threshold variation at 25 umol/kg, po administered as single dose measured after 120 mins by tail flick test relative to control.
Assay [5] relates to Mus musculus. The assay is described as follows: Analgesic activity in ICR mouse assessed as pain threshold variation at 25 umol/kg, po administered as single dose measured after 150 mins by tail flick test relative to control.
Assay [6] concerns Mus musculus. The assay is described as follows: Analgesic activity in ICR mouse assessed as pain threshold variation at 25 umol/kg, po administered as single dose measured after 180 mins by tail flick test relative to control.

Regarding `N=C(N)NCCC[C@H](NC(=O)CN(c1ncnc2c1ncn2C1CCCCO1)C1CC1)C(=O)OCc1ccccc1` (stereo not given in full), the Activity in assay [1] is reported as 34.27%; in assay [2], 52.35%; in assay [3] it was 61.58%; in assay [4], 38.16%; in assay [5] it was 19.6%; in assay [6], 7.97%.
Turning to `CC(C)C[C@H](NC(=O)CN(c1nc(Cl)nc2[nH]cnc12)C1CC1)C(=O)OCc1ccccc1`, the Activity was found to be 33.91% in assay [1]; 27.26% in assay [2]; 15.21% in assay [3]; 8.58% in assay [4]; 5.26% in assay [5]; 4.29% in assay [6].
Regarding `NC(=O)CC[C@H](NC(=O)CN(c1nc(Cl)nc2[nH]cnc12)C1CC1)C(=O)OCc1ccccc1`, the Activity in assay [1] was 30.76%; in assay [2] it was 33.07%; in assay [3] it was 42.83%; in assay [4], 36.04%; in assay [5] it was 31.07%; in assay [6] it was 19.17%.
In the case of `C[C@@H](O)[C@H](NC(=O)CN(c1nc(Cl)nc2[nH]cnc12)C1CC1)C(=O)O`, the Activity was 18.59% in assay [1]; 30.07% in assay [2]; 35.87% in assay [3]; 37.59% in assay [4]; 24.02% in assay [5]; 4.69% in assay [6].
In the case of `O=C(OCc1ccccc1)[C@@H]1CCCN1C(=O)CN(c1ncnc2c1ncn2C1CCCCO1)C1CC1` (stereo not given in full), the Activity in assay [1] is 32.25%; in assay [2] it was 36.73%; in assay [3] it was 23.31%; in assay [4], 17.49%; in assay [5] it was 7.85%; in assay [6] it was 6.63%.
For the compound `O=C(CN(c1nc(Cl)nc2[nH]cnc12)C1CC1)N[C@@H](CCC(=O)OCc1ccccc1)C(=O)OCc1ccccc1`, the Activity in assay [1] was determined as 52.8%; in assay [2], 53.74%; in assay [3], 50%; in assay [4], 45.94%; in assay [5], 44.46%; in assay [6], 29.87%.
`O=C(CN(c1nc(Cl)nc2[nH]cnc12)C1CC1)N[C@@H](Cc1c[nH]c2ccccc12)C(=O)O`: the Activity in assay [1] worked out at 17.55%; in assay [2], 17.84%; in assay [3], 18.3%; in assay [4], 8.19%; in assay [5] it was 5.27%; in assay [6], 3.91%.
In the case of `NC(=O)CC[C@H](NC(=O)CN(c1ncnc2c1ncn2C1CCCCO1)C1CC1)C(=O)OCc1ccccc1` (stereo not given in full), the Activity came to 46.96% in assay [1]; 39.4% in assay [2]; 37.82% in assay [3]; 22.34% in assay [4]; 10.72% in assay [5]; 7.71% in assay [6].
Consider `O=C(CN(c1nc(Cl)nc2[nH]cnc12)C1CC1)N[C@@H](Cc1cnc[nH]1)C(=O)OCc1ccccc1`, for which the Activity worked out at 29.06% in assay [1]; 26.6% in assay [2]; 15.04% in assay [3]; 10.15% in assay [4]; 5.05% in assay [5]; 4.18% in assay [6].
With `O=C(CN(c1ncnc2c1ncn2C1CCCCO1)C1CC1)N[C@@H](Cc1ccc(O)cc1)C(=O)OCc1ccccc1` (stereo not given in full), the Activity in assay [1] worked out at 20.53%; in assay [2], 35.82%; in assay [3] it was 36.45%; in assay [4], 17.44%; in assay [5] it was 8.71%; in assay [6] it was 5.02%.
As to `C[C@@H](O)[C@H](NC(=O)CN(c1ncnc2c1ncn2C1CCCCO1)C1CC1)C(=O)OCc1ccccc1` (stereo not given in full), the Activity in assay [1] turned out to be 23.61%; in assay [2] it was 28.36%; in assay [3], 23.38%; in assay [4] it was 10.91%; in assay [5] it was 6.53%; in assay [6] it was 2.34%.
On to `O=C(CN(c1nc(Cl)nc2[nH]cnc12)C1CC1)N[C@@H](Cc1ccc(O)cc1)C(=O)OCc1ccccc1`, for which the Activity in assay [1] worked out at 22.6%; in assay [2] it was 22%; in assay [3] it was 15.02%; in assay [4], 13.65%; in assay [5], 9.38%; in assay [6] it was 4.33%.
Consider `O=C(O)CNC(=O)CN(c1nc(Cl)nc2[nH]cnc12)C1CC1`, for which the Activity in assay [1] worked out at 32.16%; in assay [2] it was 38.89%; in assay [3] it was 32.31%; in assay [4] it was 19.81%; in assay [5], 9.08%; in assay [6], 8.11%.
For `O=C(CN(c1ncnc2c1ncn2C1CCCCO1)C1CC1)N[C@@H](Cc1c[nH]c2ccccc12)C(=O)OCc1ccccc1` (stereo not given in full), the Activity in assay [1] is on record as 43.53%; in assay [2], 51.9%; in assay [3], 38.93%; in assay [4] it was 22.58%; in assay [5], 11.45%; in assay [6], 5.15%.
As for `O=C(CN(c1nc(Cl)nc2[nH]cnc12)C1CC1)N[C@@H](Cc1c[nH]c2ccccc12)C(=O)OCc1ccccc1`, the Activity is recorded as 30.67% in assay [1]; 42.24% in assay [2]; 40.71% in assay [3]; 21.51% in assay [4]; 10.71% in assay [5]; 7.78% in assay [6].
With `CCOC(=O)CN(c1nc(Cl)nc2c1ncn2C1CCCCO1)C1CC1` (stereo not given), the Activity in assay [1] amounted to 9.92%; in assay [2], 22.64%; in assay [3], 13.04%; in assay [4], 14.91%; in assay [5] it was 11.85%; in assay [6], 5.33%.
With `O=C(O)C[C@H](NC(=O)CN(c1nc(Cl)nc2[nH]cnc12)C1CC1)C(=O)O`, the Activity in assay [1] worked out at 19.85%; in assay [2], 38.9%; in assay [3], 25.14%; in assay [4], 21.95%; in assay [5], 11.63%; in assay [6], 3.17%.
With `CC[C@H](C)[C@H](NC(=O)CN(c1nc(Cl)nc2[nH]cnc12)C1CC1)C(=O)OCc1ccccc1`, the Activity in assay [1] worked out at 41.39%; in assay [2], 40.63%; in assay [3] it was 36.28%; in assay [4], 21.97%; in assay [5], 6.9%; in assay [6], 3.38%.
For `C[C@@H](O)[C@H](NC(=O)CN(c1nc(Cl)nc2[nH]cnc12)C1CC1)C(=O)OCc1ccccc1`, the Activity in assay [1] turned out to be 21.86%; in assay [2] it was 29.7%; in assay [3], 29.88%; in assay [4], 30.7%; in assay [5], 12.76%; in assay [6] it was 6.29%.
As to `O=C(O)[C@@H]1CCCN1C(=O)CN(c1nc(Cl)nc2[nH]cnc12)C1CC1`, the Activity in assay [1] is 31.47%; in assay [2] it was 34.94%; in assay [3], 25.99%; in assay [4], 23.61%; in assay [5], 7.29%; in assay [6], 6.67%.

Values taken from ChEMBL document CHEMBL1152546, “N-[2-chloro-9H-purin-6-yl]-N-cyclopropylglycylamino acids and derivatives: synthesis, evaluation as a class of novel analgesics, and 3D QSAR analysis” (2009).
